The values that follow come from article PMC6681348 (Biomolecules, 2019).

Entries after “also recorded” stand apart in the source; their conditions may differ. Read-outs that look alike come from different tables or passages of the source. Positions of bridges follow the written chain, without caps; N, C: chain ends. Residues, ends and D or L forms follow the SMILES beside them. No end group written: not given here.

Usually Ki stands for a measure of affinity in units of concentration, obtained from inhibition or displacement.

The target of series [1] is trypsin. As to conditions: read-out: Ki, trypsin inhibition; cited from earlier work. The text has this: Odorous frogs are distributed in East Asia and the surrounding areas, and they are named because of their smelly skin secretion, which plays a fundamental role in defensive systems. To date, hundreds of functional peptides have been isolated from Odorrana skin secretion, not only many potent antimicrobial peptides but also trypsin inhibitors. […] Combined with the data obtained from trypsin cleavage, each segment of both Kunitzin-OV and Kunitzin-RE was cleaved by trypsin via typical cleavage site Lys and Arg. […] Therefore, we assumed that the Lys close to the region of the protease-binding loop could act as a competitive position for trypsin activity ...

The test system of series [2] is trypsin. In words: trypsin cleavage assay. As to conditions: up to 20 min.
Series [3] deals with Candida albicans (NCPF 1467). As to conditions: MHB, broth dilution, 1-512 µM two-fold, 5 × 10^5 cfu/mL, seven replicates. Here is the method: (§1) Staphylococcus aureus (NCTC 10788), Escherichia coli (NCTC 10418), and Candida albicans (NCPF 1467) were applied in the antimicrobial test. They all were cultured in Mueller-Hinton Broth (MHB). […] Peptides were incubated with subcultured bacteria cells (5 × 10^5 cfu/mL) and each concentration was performed in seven replicates.
(In general: Dilution methods test growth across graded concentrations, often in twofold steps.)

In series [4] the test system is Escherichia coli (NCTC 10418). As to conditions: MHB, broth dilution, 1-512 µM two-fold, 5 × 10^5 cfu/mL, seven replicates. How it is done:
as §1

Series [5] has as its system Staphylococcus aureus (NCTC 10788). To be noted: MHB, broth dilution, 1-512 µM two-fold, 5 × 10^5 cfu/mL, seven replicates. Here is the method: as §1
The test system of the next series is horse red blood cells. To be noted: horse red blood cells 4% v/v, 37 °C, 2 h, concentrations up to 512 µM; 1% Triton X-100 = 100% haemolysis. Here is the method:
As described in the previous study, a suspension of horse red blood cells (4%, v/v) (TCS Biosciences, Botolph Claydon, Buckingham, UK) was incubated with peptides of the concentration range of 1 µM to 512 µM at 37 °C for 2 h to determine the peptide haemolytic activity. The positive control employed 1% TritonX-100 (Sigma, UK).

Another series concerns all tested microbes. As to conditions: single loop synthesized alone; cited from earlier work. The text has this:
The results just corresponded to the physicochemical properties of these two peptides.

Series [6] relates to trypsin. In words: trypsin cleavage. As to conditions: cited from earlier work.
The subject of series [7] is trypsin. Briefly: Trypsin inhibition assay. The series is classed as biochemical. To be noted: substrate Phe-Pro-Arg-AMC; for trypsin inhibitory activity (in words): 16 concentrations, duplicates. How it is done: (§2) The inhibitory activity of peptides towards trypsin and chymotrypsin was tested the same as detailed in Wang’s study. Peptides were initially prepared in a range of 10^−3–10^−6 M and then diluted to 16 concentrations. Each dilution was tested in duplicates. Additionally, Phe-Pro-Arg-AMC and Succinyl-Ala-Ala-Pro-Phe-NHMec (obtained from Bachem, UK) were served as substrates for trypsin and chymotrypsin, respectively.

A further series deals with chymotrypsin. In words: Chymotrypsin inhibition assay. To be noted: substrate Succinyl-Ala-Ala-Pro-Phe-NHMec, duplicates. The series is classed as biochemical. How it is done: as §2

As for “AVNIPFKVHFRCKAAFC (disulfide 12-17 (inferred)) [OGTI]”, the Ki at trypsin [1] was 400 nM.

Consider ALKYPFRCKAAFC, for which, in the series with trypsin [2], the fragment found result is on record as “ALKYPFR, first_seen, 0 min”.

On to `CC(C)C[C@H](NC(=O)[C@H](C)N)C(=O)N[C@@H](CCCCN)C(=O)N[C@@H](Cc1ccc(O)cc1)C(=O)N1CCC[C@H]1C(=O)N[C@@H](Cc1ccccc1)C(=O)N[C@@H](CCCNC(=N)N)C(=O)N[C@H]1CSSC[C@@H](C(=O)O)NC(=O)[C@H](Cc2ccccc2)NC(=O)[C@H](C)NC(=O)[C@H](C)NC(=O)[C@H](CCCCN)NC1=O` [Kunitzin-OV] (H-ALKYPFRCKAAFC-OH; disulfide 8-13), for which the “Minimum Inhibitory Concentration C. albicans” value in series [3] stood at 512 µM. Moreover, the “Minimum Inhibitory Concentration E. coli” value in [4] is 512 µM. For the same molecule, in series [5], the “Minimum Inhibitory Concentration S. aureus” value was 512 µM. Further, the haemolytic activity entry in the series with horse red blood cells is recorded as “less than 10%”.

“-CKAAFC- (disulfide) [single disulfide loop of kunitzins synthesized alone by Chen and colleagues]”: the “antimicrobial activity (in words)” value with all tested microbes is reported as “no activity was observed”.

As for AAKIILNPKFRCKAAFC, in the series with trypsin [6], the not cleaved result is reported as “this did not happen to Kunitzin-RE”.

On to `CC(C)C[C@H](NC(=O)[C@H](C)N)C(=O)N[C@@H](CCCCN)C(=O)N[C@@H](Cc1ccc(O)cc1)C(=O)N1CCC[C@H]1C(=O)N[C@@H](Cc1ccccc1)C(=O)N[C@@H](CCCNC(=N)N)C(=O)N[C@H]1CSSC[C@@H](C(=O)O)NC(=O)[C@H](Cc2ccccc2)NC(=O)[C@H](C)NC(=O)[C@H](C)NC(=O)[C@H](Cc2ccccc2)NC1=O` [F^9-Kunitzin-OV] (H-ALKYPFRCFAAFC-OH; disulfide 8-13 (inferred); N-terminus and C-terminus assumed), for which the “trypsin inhibitory activity (in words)” value is listed as “undetected; also recorded: disappeared; also recorded: vanished” in the series with trypsin [7] and “eliminated” in the series with trypsin [7] (listed as site-substituted analogue). In addition, the Ki on chymotrypsin (16 concentrations from 10^-3-10^-6 M, Morrison plot, read-out: Ki, chymotrypsin inhibitory activity) came to 11800 ± 2090 nM. Further, in the series on chymotrypsin (16 concentrations), the “chymotrypsin inhibitory activity (in words)” value was “optimized chymotrypsin inhibitory activity”.

B1: ovomucoid inhibitor (chicken): chicken egg white trypsin inhibitor Type III-O, more than 200 amino acid residues, served as a contrast (protein, UniProt P01005 25-210, looked up)
Ovomucoid: AEVDCSRFPNATDKEGKDVLVCNKDLRPICGTDGVTYTNDCLLCAYSIEFGTNISKEHDGECKETVPMNCSSYANTTSEDGKVMVLCNRAFNPVCGTDGVTYDNECLLCAHKVEQGASVDKRHDGGCRKELAAVSVDCSEYPKPDCTAEDRPLCGSDNKTYGNKCNFCNAVVESNGTLTLSHFGKC
B1: the “trypsin inhibitory activity (in words)” value in the series on trypsin [7] was “more potent inhibitory activity than Kunitzin-OV”; in the series with trypsin [7] (listed as chicken egg white trypsin inhibitor Type III-O), “faster and stronger inhibitory efficacy on trypsin than Kunitzin-OV”. Besides, the affinity at trypsin [7] (Morrison plot, contrast inhibitor) corresponds to a Ki of 3.49 ± 0.505 nM.
